Patent publication US20220049015A1, “COMPOSITIONS AND METHODS FOR THE TREATMENT AND/OR PREVENTION OF HER2+ CANCERS” (DUKE UNIVERSITY, priority 2018, published 2022)

Tested on: MM3MG-HER2Δ16 cells
Experiment: In vitro ADCP and ADCC by bone marrow derived macrophages (BMDM)
Assay type: cell-based, mouse
Details: Concanamycin A 1 μM in BMDM co-culture
Method: MM3MG-HER2Δ16 cells were labeled with Brilliant Violet 450 Dye, and co-cultured with BMDM (3:1 ratio) with control or anti-HER2 antibodies (10 μg/mL). ADCP rates were measured by percentage of BMDM uptake of labeled tumor cells (CD45+and BV450+), and Antibody-dependent-cellular-cytotoxicity (ADCC) rates were measured by percentage of dying free tumor cells (CD45− and LIVE/DEAD stain+). […] All data represent mean ±SEM, **P<0.01, ***P<0.001, ****P<0.0001.
ADCP and ADCC by macrophages—Bone marrow derived macrophages (BMDM) were generated from mouse tibia, differentiated for 10 days with 50 ng/mL mouse MCSF (Peprotech 315-02). Briefly, 50 million bone marrow cells were plated in 10 cm^2 tissue culture dish with MCSF on day 0. Unattached cells in supernatant were removed and fresh media+MC SF were added on day 3, day 6 and day 9. BMDM were used for ADCP/ADCC assays on day 10. Tumor cells MM3MG-HER2416 were labeled with Brilliant Violet 450 Dye (BD 562158) according to manufacturer's protocol, and incubated with control or anti-HER2 antibodies (10 μg/mL) in 96-wells (100,000 cells/well) for 30 minutes at 37° C. BMDM were then added for co-culture at a 3:1 ratio of Tumor vs BMDM. After 2 hours co-culture, phagocytosis of BV450-labeled tumor cells by BMDM were analyzed by FACS with CD45-APC staining and Live-death (Red) staining. […]

C/C=C/[C@H]1O[C@@](O)([C@@H](C)[C@H](O)[C@H](C)[C@H]2OC(=O)/C(OC)=C/C(C)=C/[C@@H](C)[C@@H](O)[C@@H](CC)[C@@H](O)[C@H](C)C/C(C)=C/C=C/[C@@H]2OC)C[C@@H](O[C@H]2C[C@@H](O)[C@H](OC(N)=O)[C@@H](C)O2)[C@@H]1C [Concanamycin A]
effect of ADCC inhibitor on HER2 mAb activities: had no effect on HER2 mAb activities
